pIC50: −log10 of the molar value.

The test concerns IL-2. The test can be described thus: PHA-IL2 (cell activation and cytokine analysis). Type of test: cell-based. To be noted: 50% inhibition concentration class. In outline:
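Cells were seeded in 96-well plates at 1.0-2.0×10^6 cells/ml in 150 ul of RPMI containing 0.5% fetal calf serum. Test compounds, at up to ≤20 uM, were preincubated with the cells for 30 minutes, then phytohemagglutinin (PHA) was added and cultures were stimulated for 24-48 hours at 37 degrees C./5% CO2. Supernatant IL-2 was then quantified by standard ELISA.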
`O=C(COc1cccnc1-c1ccc(F)nc1)N1CCC(CCc2ccc3c(c2)OCCCO3)CC1` [Compound 339] showed a pIC50 of 5.00 to 6.00.

For the compound `COc1cccc(CCC2CCN(C(=O)COc3cccnc3-c3ccc4[nH]ncc4c3)CC2)c1` [Compound 362], the negative logarithm of the IC50 (pIC50) was 5.00 to 6.00.

Regarding `COC(=O)c1ccc(CCC2CCN(C(=O)COc3ccccc3-c3ccc(C#N)cc3)CC2)cc1` [Compound 290], the pIC50 was over 6.00.

As to `CC1Oc2ccc(CCC3CCN(C(=O)COc4ccccc4-c4ccc(C#N)cc4)CC3)cc2OC1C` (stereo not drawn) [Compound 263], the negative logarithm of the IC50 (pIC50) is over 6.00.

On to `COc1cccc(-c2ccccc2OCC(=O)N2CCC(CCc3ccc4c(c3)OCO4)CC2)c1OC` [Compound 241], for which the negative logarithm of the IC50 (pIC50) is over 6.00.

The compound `Cn1ccc2cc(-c3ncccc3OCC(=O)N3CCC(CCc4cccc(OCCN5CCOCC5)c4)CC3)ccc21` [Compound 380] gave a pIC50 of 5.00 to 6.00.

In turn, `O=C(COc1ccccc1-c1ccc(F)cc1O)N1CCC(CCc2ccccc2)CC1` [Compound 348] had a pIC50 of over 6.00.

For `N#Cc1ccc(-c2cc(C(=O)Nc3ccccc3)ccc2OCC(=O)N2CCC(CCc3ccccc3)CC2)cc1` [Compound 369], the pIC50 is 5.00 to 6.00.

Take `CC(C)Oc1ccc(CCC2CCN(C(=O)COc3ccccc3-c3ccc(C#N)cc3)CC2)cc1` [Compound 430]: the pIC50 is over 6.00.

Turning to `CC1Oc2ccc(CCC3CCN(C(=O)COc4ccccc4-c4ccc(Cl)nc4)CC3)cc2OC1C` (stereo not drawn) [Compound 265], the pIC50 is over 6.00.

Regarding `N#Cc1ccc(OCC(=O)N2CCC(CCc3ccccc3)CC2)c(-c2ccc3[nH]cnc3c2)c1` [Compound 372], the pIC50 was 5.00 to 6.00.

Take `O=C(COc1ccccc1-c1ccc(F)cc1)N1CCC(CCc2ccccc2)CC1` [Compound 270]: the pIC50 is 5.00 to 6.00.

With `COc1ccc(F)c(-c2ccccc2OCC(=O)N2CCC(CCc3ccc4c(c3)OCO4)CC2)c1` [Compound 238], the pIC50 is over 6.00.

Compound `O=C(COc1ccccc1-c1ccc(C(F)(F)F)cc1F)N1CCC(CCc2ccc3c(c2)OCO3)CC1` [Compound 237] gave a pIC50 of over 6.00.

Consider `COc1ncccc1-c1ccccc1OCC(=O)N1CCC(CCc2ccc3c(c2)OCO3)CC1` [Compound 191], for which the pIC50 was 5.00 to 6.00.

Take `COc1c(F)cc(F)cc1-c1ccccc1OCC(=O)N1CCC(CCc2ccc3c(c2)OCO3)CC1` [Compound 242]: the pIC50 is 5.00 to 6.00.

On to `CC1Oc2ccc(CCC3CCN(C(=O)COc4ccccc4-c4ccc(F)cc4)CC3)cc2OC1C` (stereo not drawn) [Compound 264], for which the negative logarithm of the IC50 (pIC50) was over 6.00.

In turn, `Cc1nc2cc(-c3ccccc3OCC(=O)N3CCC(CCc4ccc(OC(C)C)cc4)CC3)ccc2[nH]1` [Compound 433] had a pIC50 of over 6.00.

Compound `Cc1cc(F)ncc1-c1ncccc1OCC(=O)N1CCC(CCc2ccccc2)CC1` [Compound 333] gave a pIC50 of 4.30 to 5.00.

Regarding `CCc1ccc(OCC(=O)N2CCC(CCc3ccc4c(c3)OCO4)CC2)c(-c2ccccc2)c1` [Compound 276], the pIC50 was over 6.00.

`CC(C)NC(=O)c1ccc(OCC(=O)N2CCC(CCc3ccccc3)CC2)c(-c2ccc(F)cc2O)c1` [Compound 319] showed a negative logarithm of the IC50 (pIC50) of 4.30 to 5.00.

The compound `O=C(COc1ccccc1-c1ccc(O)cc1)N1CCC(CCc2ccc3c(c2)OCO3)CC1` [Compound 170] had a pIC50 of 5.00 to 6.00.

Compound `O=C(COc1ccccc1-c1ccccc1O)N1CCC(CCc2ccc3c(c2)OCCO3)CC1` [Compound 295] showed a pIC50 of 5.00 to 6.00.

On to `CC(C)Oc1cccc(-c2ccccc2OCC(=O)N2CCC(CCc3ccc4c(c3)OCO4)CC2)c1` [Compound 243], for which the pIC50 is 5.00 to 6.00.

As for `Cc1ccc(-c2ccccc2OCC(=O)N2CCC(CCc3ccccc3)CC2)nn1` [Compound 422], the pIC50 is over 6.00.

As to `O=C(COc1cccnc1-c1ccc(F)nc1)N1CCC(CCc2ccc3c(c2)OCO3)CC1` [Compound 340], the negative logarithm of the IC50 (pIC50) was 5.00 to 6.00.

Take `N#Cc1ccc(OCC(=O)N2CCC(CCc3cccc4ccccc34)CC2)c(-c2ccc(F)cc2O)c1` [Compound 401]: the pIC50 was over 6.00.

`N#Cc1ccc(-c2ccccc2OCC(=O)N2CCC(CCc3cccc4c3OCO4)CC2)cc1` [Compound 299] showed a pIC50 of over 6.00.

`CCOc1cccc(-c2ccccc2OCC(=O)N2CCC(CCc3ccc4c(c3)OCO4)CC2)c1` [Compound 206] gave a pIC50 of over 6.00.

The compound `COc1cccc(CCC2CCN(C(=O)COc3ccccc3-c3ccc4[nH]cnc4c3)CC2)c1` [Compound 371] showed a pIC50 of over 6.00.

As for `O=C(COc1ccccc1-c1ccnc(N2CCOCC2)c1)N1CCC(CCc2ccc3c(c2)OCO3)CC1` [Compound 161], the pIC50 was 5.00 to 6.00.

With `O=C(O)c1cncc(-c2ccccc2OCC(=O)N2CCC(CCc3ccc4c(c3)OCO4)CC2)c1` [Compound 196], the pIC50 was 4.30 to 5.00.

With `C#CCOc1cccc(CCC2CCN(C(=O)COc3ccccc3-c3ccc(C(=O)c4ccccc4)cc3)CC2)c1` [Compound 416], the pIC50 is 5.00 to 6.00.

`CCN(CC)C(=O)c1ccc(-c2ccccc2OCC(=O)N2CCC(CCc3ccc4c(c3)OCO4)CC2)cc1` [Compound 168] showed a negative-log IC50 (pIC50) of 5.00 to 6.00.

`COc1cccc(CCC2CCN(C(=O)COc3ccc(C#N)cc3-c3ccc(F)cc3O)CC2)c1` [Compound 352] had a negative-log IC50 (pIC50) of over 6.00.

Turning to `CC1CC(CCc2ccccc2)CCN1C(=O)COc1ccccc1-c1ccc(F)cc1O` (stereo not drawn) [Compound 303], the negative logarithm of the IC50 (pIC50) is 5.00 to 6.00.

Compound `O=C(COc1ccccc1-c1ccc(Cl)nc1)N1CCC(CCc2ccccc2)CC1` [Compound 271] gave a pIC50 of over 6.00.

In the case of `COc1ccc(-c2ccccc2OCC(=O)N2CCC(CCc3ccc4c(c3)OCO4)CC2)cn1` [Compound 199], the pIC50 was over 6.00.

On to `N#Cc1ccc(-c2cc(C(=O)N3CCOCC3)ccc2OCC(=O)N2CCC(CCc3ccccc3)CC2)cc1` [Compound 318], for which the negative-log IC50 (pIC50) is 5.00 to 6.00.

In the case of `O=C(COc1ccccc1-c1ccc(F)cc1O)N1CCC(CCc2ccncc2)CC1` [Compound 392], the negative logarithm of the IC50 (pIC50) is 5.00 to 6.00.

Compound `O=C(COc1ccccc1-c1ccc2nonc2c1)N1CCC(CCc2ccc3c(c2)OCO3)CC1` [Compound 174] had a negative-log IC50 (pIC50) of 5.00 to 6.00.

Compound `O=C(COc1cccnc1-c1ccc(F)cc1O)N1CCC(CCc2ccc(OCCN3CCOCC3)cc2)CC1` [Compound 358] had a negative-log IC50 (pIC50) of 5.00 to 6.00.

Take `COc1cccc(CCC2CCN(C(=O)COc3ccc(S(=O)(=O)NC(C)C)cc3-c3ccc(F)cc3O)CC2)c1` [Compound 389]: the pIC50 was 5.00 to 6.00.

Compound `N#Cc1ccc(-c2ccccc2OCC(=O)N2CCC(CCc3ccc4c(c3)OCCO4)CC2)cn1` [Compound 297] gave a pIC50 of over 6.00.

Compound `Nc1ccc(-c2ccccc2OCC(=O)N2CCC(CCc3ccc4c(c3)OCO4)CC2)cc1` [Compound 195] had a pIC50 of 4.30 to 5.00.

`COCc1ccc(CCC2CCN(C(=O)COc3ccccc3-c3ccc(F)cc3O)CC2)cc1` [Compound 308] showed a pIC50 of over 6.00.

With `N#Cc1ccc(-c2ncccc2OCC(=O)N2CCC(CCc3ccc4c(c3)OCO4)CC2)cc1` [Compound 323], the pIC50 is 5.00 to 6.00.

With `N#Cc1ccc(OCC(=O)N2CCC(CCc3cccc(OC(F)F)c3)CC2)c(-c2ccc(F)cc2O)c1` [Compound 437], the negative-log IC50 (pIC50) is over 6.00.

For `O=C(COc1ccccc1-c1ccc2[nH]cnc2c1)N1CCC(CCc2ccccc2)CC1` [Compound 370], the pIC50 was 5.00 to 6.00.

Take `CC(Oc1ccccc1-c1ccccc1)C(=O)N1CCC(CCc2ccc3c(c2)OCCCO3)CC1` (stereo not drawn) [Compound 209]: the pIC50 was over 6.00.

Consider `CCOc1ccccc1-c1ccccc1OCC(=O)N1CCC(CCc2ccc3c(c2)OCO3)CC1` [Compound 207], for which the pIC50 is over 6.00.

`C#Cc1ccc(-c2ccccc2OCC(=O)N2CCC(CCc3ccc4c(c3)OCO4)CC2)cc1` [Compound 250] had a pIC50 of over 6.00.

As for `O=C(COc1ccccc1-c1ccc(F)cc1O)N1CCC(CCc2cccc(C(F)(F)F)c2)CC1` [Compound 310], the negative logarithm of the IC50 (pIC50) is over 6.00.

Turning to `O=C(COc1ccccc1-c1ccc(F)cc1O)N1CCC(CCc2cccnc2)CC1` [Compound 393], the negative-log IC50 (pIC50) is 5.00 to 6.00.

Consider `CC(C)Oc1ccc(CCC2CCN(C(=O)COc3ccccc3-c3ccc(C#N)cc3)CC2)cc1OC(C)C` [Compound 301], for which the negative logarithm of the IC50 (pIC50) is over 6.00.

On to `Nc1ccc(/C=C/C2CCN(C(=O)COc3ccccc3-c3ccccc3)CC2)cn1` [Compound 252], for which the pIC50 is 4.30 to 5.00.

Compound `COc1cccc(CCC2CCN(C(=O)COc3ccc(S(N)(=O)=O)cc3-c3ccc(C#N)cc3)CC2)c1` [Compound 385] had a negative logarithm of the IC50 (pIC50) of 5.00 to 6.00.

`N#Cc1ccc(OCC(=O)N2CCC(CCc3cccc(OC4CC4)c3)CC2)c(-c2ccc(F)cc2O)c1` [Compound 407]: the pIC50 was over 6.00.

In turn, `COc1ccc(CCC2(O)CCN(C(=O)COc3ccc(F)cc3-c3ccccc3)CC2)cc1` [Compound 176] gave a negative logarithm of the IC50 (pIC50) of 4.30 to 5.00.

`O=C(CCc1ccccc1-c1ccc(F)cc1)N1CCC(CCc2cc(F)cc(F)c2)CC1` [Compound 223] showed a negative-log IC50 (pIC50) of 5.00 to 6.00.

Compound `O=C(COc1ccccc1-c1ccc(F)cc1O)N1CCC(CCc2ccc3c(c2)OCO3)CC1` [Compound 288] had a negative-log IC50 (pIC50) of over 6.00.

`N#Cc1ccc(-c2ccccc2OCC(=O)N2CCC(CCc3ccccc3)CC2)cc1` [Compound 269] had a pIC50 of over 6.00.

For `N#Cc1ccc(-c2ncccc2OCC(=O)N2CCC(CCc3ccccc3)CC2)cn1` [Compound 334], the pIC50 is 5.00 to 6.00.

In turn, `O=C(COc1ccccc1-c1ccc(F)cc1O)N1CCC(CCc2ccc3c(c2)OCCO3)CC1` [Compound 296] gave a negative-log IC50 (pIC50) of over 6.00.

For `COc1ccccc1-c1ccccc1OCC(=O)N1CCC(CCc2ccc3c(c2)OCO3)CC1` [Compound 180], the pIC50 is 5.00 to 6.00.

The compound `O=C(COc1ccccc1-c1ccc(F)cc1O)N1CCC(CCc2cccc(OC(F)F)c2)CC1` [Compound 435] gave a pIC50 of over 6.00.

In the case of `O=C(COc1ccccc1-c1ccccc1O)N1CCC(CCc2ccc(O)cc2)CC1` [Compound 282], the pIC50 is over 6.00.

Turning to `CC(C)Oc1cccc(CCC2CCN(C(=O)COc3ccccc3-c3ccc(F)cc3O)CC2)c1` [Compound 400], the negative logarithm of the IC50 (pIC50) is over 6.00.

Regarding `O=C(COc1ccccc1-c1cnccn1)N1CCC(CCc2ccccc2)CC1` [Compound 423], the negative-log IC50 (pIC50) is 5.00 to 6.00.

Values taken from US10899747B2, “Biaryl piperidine amide compounds and methods of use thereof” (Athenex, Inc., priority 2017, dated 2021).
